Structures are written as SMILES. pIC50: −log10 of the molar value.

Here are results for 23 compounds from ChEMBL document CHEMBL3045893, “QSAR analysis of N-myristoyltransferase inhibitors: antifungal activity of benzofurans” (Med Chem Res, 2009).

In the test the target is T1, Glycylpeptide N-tetradecanoyltransferase (Candida albicans (strain SC5314 / ATCC MYA-2876) (Yeast), UniProt P30418).
T1 sequence (P30418 whole entry): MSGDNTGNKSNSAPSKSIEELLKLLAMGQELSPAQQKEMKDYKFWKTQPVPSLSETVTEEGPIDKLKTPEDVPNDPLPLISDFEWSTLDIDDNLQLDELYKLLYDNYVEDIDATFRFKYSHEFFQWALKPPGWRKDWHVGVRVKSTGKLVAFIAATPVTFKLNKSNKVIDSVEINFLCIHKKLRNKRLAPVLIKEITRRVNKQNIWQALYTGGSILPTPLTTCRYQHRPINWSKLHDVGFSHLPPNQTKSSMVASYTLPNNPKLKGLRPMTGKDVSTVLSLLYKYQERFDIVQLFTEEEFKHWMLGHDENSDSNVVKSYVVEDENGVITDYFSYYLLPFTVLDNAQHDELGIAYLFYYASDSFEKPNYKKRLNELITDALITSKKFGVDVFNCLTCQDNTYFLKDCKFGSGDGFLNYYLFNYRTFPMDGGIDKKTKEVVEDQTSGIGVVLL
Nature of the test: Inhibition of candida N-myristoyltransferase.
Compound `Cc1c(CCc2ccccc2)oc2cccc(OCCNCc3cccnc3)c12` had a pIC50 of 5.92. In the case of `Cc1c(C(=O)Nc2ccccc2)oc2cccc(OCCNCc3cccnc3)c12`, the pIC50 was 5.66. For `CCOC(=O)c1oc2cccc(OCCNCc3cccnc3)c2c1C1CC1` the value was 5.36.

For the compound `CCOC(=O)c1oc2cccc(OCCNCc3ccccc3)c2c1C`, the negative-log IC50 (pIC50) is 5.48. The result for `CCOC(=O)c1oc2cccc(OCCNCc3cccnc3)c2c1C` reads 7.00; that for `CCOC(=O)c1oc2cccc(OCCNCc3cccnc3)c2c1CC`, 5.00; that for `CCOC(=O)c1oc2cccc(OCCNCc3cccnc3)c2c1C(C)C`, 4.08. The result for `CCOC(=O)c1cc2c(OCCNCc3cccnc3)cccc2o1` reads 4.10; that for `CC(=O)c1nccn1-c1oc2cccc(OCCNCc3cccnc3)c2c1C`, 9.00.

In turn, `COCc1ccc2oc(-c3oc4cccc(OCCNCc5cccnc5)c4c3C)cc2c1` showed a negative logarithm of the IC50 (pIC50) of 8.52.

Take `Cc1c(COc2ccccc2C#N)oc2cccc(OCCNCc3cccnc3)c12`: the negative logarithm of the IC50 (pIC50) is 7.77. For `Cc1c(COc2ccccc2)oc2cccc(OCCNCc3cccnc3)c12` the value was 7.14; for `Cc1c(COc2cccc(F)c2)oc2cccc(OCCNCc3cccnc3)c12`, 6.96.

For the compound `Cc1c(COc2ccccc2F)oc2cccc(OCCNCc3cccnc3)c12`, the pIC50 was 8.08. The result for `Cc1c(COc2ccc(F)cc2F)oc2cccc(OCCNCc3cccnc3)c12` reads 8.12; that for `Cc1c(COc2ccc(F)cc2)oc2cccc(OCCNCc3cccnc3)c12`, 8.28; that for `Cc1c(COc2ccc(Cl)cc2)oc2cccc(OCCNCc3cccnc3)c12`, 7.14. For `Cc1c(COc2ccc(C#N)cc2)oc2cccc(OCCNCc3cccnc3)c12` the value was 8.03; for `CCOC(=O)c1oc2cccc(OCC(O)CNC(C)(C)C)c2c1C` (stereo not drawn), 5.92. For `CCOC(=O)c1oc2cccc(OCCCCCNC(C)(C)C)c2c1C` the value was 5.82; for `CCOC(=O)c1oc2cccc(OCCCN3CCCCC3)c2c1C`, 5.80.

As to `CCOC(=O)c1oc2cccc(OCCCCNC(C)(C)C)c2c1C`, the pIC50 was 5.36.

For `CCOC(=O)c1oc2cccc(OCCNC(C)(C)C)c2c1C`, the negative logarithm of the IC50 (pIC50) was 4.30.
